In the assay the target is T1, Tyrosine-protein phosphatase non-receptor type 1 (Homo sapiens) (UniProt P18031).
T1 sequence (whole entry): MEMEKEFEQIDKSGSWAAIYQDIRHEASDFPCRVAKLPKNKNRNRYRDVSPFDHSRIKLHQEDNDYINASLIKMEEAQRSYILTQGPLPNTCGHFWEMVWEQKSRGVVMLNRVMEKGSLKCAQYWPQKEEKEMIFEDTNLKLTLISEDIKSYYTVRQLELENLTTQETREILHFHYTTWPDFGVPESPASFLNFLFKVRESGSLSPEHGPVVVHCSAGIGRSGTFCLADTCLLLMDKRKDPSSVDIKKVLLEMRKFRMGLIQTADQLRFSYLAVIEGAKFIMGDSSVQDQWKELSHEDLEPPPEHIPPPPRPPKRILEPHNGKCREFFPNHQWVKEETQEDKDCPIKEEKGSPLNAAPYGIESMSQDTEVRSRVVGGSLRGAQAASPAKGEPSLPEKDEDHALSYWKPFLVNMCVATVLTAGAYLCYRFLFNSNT
As to the kind of experiment: Catalytic turnover rate was determined.

Molecules are shown by their SMILES. Numbered stars: 1 amine (or outer) side, 2 acyl side, 3 side chain; on linkers, the order of the positions; unused ones are H or OH. Square brackets hold non-standard residues; d marks the D form. Peptide text beside a SMILES is read from it. X1 = O=C([C@H](Cc1ccc(OP(=O)(O)O)cn1)N[*:1])[*:2]; pY = N[C@@H](Cc1ccc(OP(=O)(O)O)cc1)C(=O)O

Regarding `CC(=O)N[C@@H](CC(=O)O)C(=O)N[C@@H](C)C(=O)N[C@@H](CC(=O)O)C(=O)N[C@@H](CCC(=O)O)C(=O)N[C@@H](Cc1ccc(OP(=O)(O)O)cn1)C(=O)N[C@@H](CC(C)C)C(N)=O` (Ac-DADE[X1]L-NH2), the k cat is 52 s⁻¹.

The compound `CC(=O)N[C@@H](CC(=O)O)C(=O)N[C@@H](C)C(=O)N[C@@H](CC(=O)O)C(=O)N[C@@H](CCC(=O)O)C(=O)N[C@@H](Cc1ccc(OP(=O)(O)O)cc1)C(=O)N[C@@H](CC(C)C)C(N)=O` (Ac-DADE[pY]L-NH2) displayed a k cat of 68 s⁻¹.

Values taken from ChEMBL document CHEMBL1134058, “Phospho-Azatyrosine, a less effective protein-tyrosine phosphatase substrate than phosphotyrosine” (Bioorg Med Chem Lett, 2001).
